# Assay results taken from patent US10919902B2, “Hetero-halo inhibitors of histone deacetylase” (Alkermes, Inc., priority 2015, dated 2021).
# pIC50: −log10 of the molar value.
# Target: recombinant human HDACs (Homo sapiens)
# Test: HDAC enzymatic assay
# Assay type: biochemical
# Settings: 5 nM HDAC enzyme, 5 h pre-incubation, 17 h reaction at 25° C.; isoform not given; read-out: IC50
# Description: All recombinant human HDACs were purchased from BPS Bioscience. The substrate, FAM-TSRHK(AC)KL-CONH, was synthesized at NanoSyn. Final assay reactions contained 100 mM HEPES (pH 7.5), 50 mM KCl, 0.1% BSA, 0.01% Triton X-100, 1% DMSO, 1 uM substrate and 5 nM HDAC enzyme. Enzyme and compounds were pre-incubated at 25° C. for 5 hours and reactions were initiated by addition of substrate. 10 uL reactions were incubated for 17 hours at 25° C. and terminated by the addition of 40 uL of buffer containing 100 mM HEPES (pH 7.5), 0.1% BSA, 0.01% Triton X-100 and 0.05% SDS. Substrate and product peptides present in each sample were separated electrophoretically using the LabChip 3000 capillary electrophoresis instrument. Change in the relative fluorescence intensity of the substrate and product peaks reflects enzyme activity. Reaction progress was determined as the product to sum ratio (PSR):P/(S+P), where P is the peak height of the product peptide and S is the peak height of the substrate peptide. Reactions were performed in duplicate at 12 concentrations, (3× serial dilutions starting at 30 uM). IC50 values were calculated using a 4 Parameter Logistic Model.
row,SMILES,pIC50
1,Nc1ccc(-c2cccnc2)nc1NC(=O)N1CCC2(CCCNC2)C1 (centres unmarked) [Compound 171],< 5.30
2,CN1CCC(N2CC3CN(C(=O)Nc4nc(-c5ccc(F)cc5)ccc4N)CC3C2)CC1 (centres unmarked) [Compound 169],5.30 to 6.30
3,CN1CC2CN(C(=O)Nc3nc(-c4ccc(F)cc4)ccc3N)CC2C1 (centres unmarked) [Compound 201],< 5.30
4,Nc1ccc(-c2ccc(OC(F)F)cc2)nc1NC(=O)N1CCCC1 [Compound 232],5.30 to 6.30
5,Nc1ccc(-c2ccc(F)cc2)nc1NC(=O)N1Cc2cc(CN3CC(F)(F)C3)cnc2C1 [Compound 266],5.30 to 6.30
6,CN1CCC(c2cnc3c(c2)CN(C(=O)Nc2nc(-c4ccc(F)cc4)ccc2N)C3)CC1 [Compound 252],6.30 to 7.00
7,Nc1ccc(-c2ccccc2)nc1NC(=O)N1CCn2ccnc2C1 [Compound 197],< 5.30
8,Nc1ccc(-n2cccn2)nc1NC(=O)N1CC2CN(CCF)CC2C1 (centres unmarked) [Compound 167],< 5.30
9,COc1cccc(CN2CCCC3(CCN(C(=O)Nc4nn(-c5ccc(F)cc5)cc4N)C3)C2)c1 (centres unmarked) [Compound 124],< 5.30
10,CN1CC(n2cc3c(n2)CN(C(=O)Nc2nc(-c4ccc(F)cc4)ccc2N)C3)C1 [Compound 247],6.30 to 7.00
11,Nc1ccc(-n2cccn2)nc1NC(=O)C1CCN(Cc2ccccc2F)CC1 [Compound 370],< 5.30
12,Nc1ccc(-c2ccc(F)cc2)nc1NC(=O)N1CC2CC(N3CCC3)CC2C1 (centres unmarked) [Compound 143],5.30 to 6.30
13,CN1CC(CN2CC3CC(C(=O)Nc4nc(-c5ccc(F)cc5)ccc4N)CC3C2)C1 (centres unmarked) [Compound 256],5.30 to 6.30
14,Nc1ccc(-c2ccc(F)cc2)nc1NC(=O)N1Cc2cnc(C3CCOCC3)cc2C1 [Compound 240],6.30 to 7.00
15,CN1CCN(c2ccc3c(c2)CN(C(=O)Nc2nn(-c4ccccc4)cc2N)C3)CC1 [Compound 352],5.30 to 6.30
16,CN1CCc2sc(C(=O)Nc3nc(-c4ccc(F)cc4)ccc3N)nc2C1 [Compound 153],6.30 to 7.00
17,Nc1ccc(-c2ccc(F)cc2)nc1NC(=O)N1Cc2cnc(N3CCOCC3)cc2C1 [Compound 150],6.30 to 7.00
18,Nc1ccc(-c2ccccc2)nc1NC(=O)C1CCN(Cc2ccccc2F)CC1 [Compound 379],< 5.30
19,CN1CC(Cn2ncc3c2CN(C(=O)Nc2nc(-c4ccc(F)cc4)ccc2N)C3)C1 [Compound 244],5.30 to 6.30
20,Nc1ccc(-c2ccco2)nc1NC(=O)N1CC2CN(Cc3ccccc3F)CC2C1 (centres unmarked) [Compound 175],< 5.30
21,Nc1ccc(-c2ccco2)nc1NC(=O)N1CC2CC(N3CC(F)C3)CC2C1 (centres unmarked) [Compound 189],< 5.30

row,SMILES,pIC50
1,CC(O)c1ccc2c(c1)CN(C(=O)Nc1nc(-c3ccc(F)cc3)ccc1N)C2 (centres unmarked) [Compound 394],6.30 to 7.00
2,Nc1ccc(-c2ccc(F)cc2)nc1NC(=O)N1CCN2CCCC2C1 (centres unmarked) [Compound 224],< 5.30
3,Nc1ccc(-c2ccc(F)cc2)nc1NC(=O)N1CC2CC(N3CC(F)C3)CC2C1 (centres unmarked) [Compound 188],5.30 to 6.30
4,Nc1ccc(-n2cccn2)nc1NC(=O)N1Cc2cc(F)cnc2C1 [Compound 185],5.30 to 6.30
5,COCc1ccc2c(c1)CN(C(=O)Nc1nc(-c3ccc(F)cc3)ccc1N)C2 [Compound 396],6.30 to 7.00
6,CN1CCC(c2ccc3c(c2)CN(C(=O)Nc2nc(-c4ccc(F)cc4)ccc2N)C3)CC1 [Compound 387],5.30 to 6.30
7,Nc1ccc(-c2cccnc2)nc1NC(=O)c1cn2c(n1)CNCC2 [Compound 219],< 5.30
8,Nc1ccc(-c2ccccc2)nc1NC(=O)c1cn2c(n1)CNCC2 [Compound 208],5.30 to 6.30
9,COc1ccc(-c2ccc(N)c(NC(=O)N3Cc4ccncc4C3)n2)cc1 [Compound 173],5.30 to 6.30
10,Cc1cnc(C(=O)Nc2nc(-c3ccc(F)cc3)ccc2N)s1 [Compound 226],6.30 to 7.00
11,Nc1ccc(-c2ccc(F)cc2)nc1NC(=O)C1CN(c2ccccn2)C1 [Compound 192],< 5.30
12,Nc1ccc(-n2cccn2)nc1NC(=O)N1CC2CN(Cc3ccccc3F)CC2C1 (centres unmarked) [Compound 177],< 5.30
13,CC(=O)N1CCN(C(=O)Nc2nn(-c3ccccc3)cc2N)CC1 [Compound 360],< 5.30
14,CN(C1CCOC1)C1CC2CN(C(=O)Nc3nc(-c4ccc(F)cc4)ccc3N)CC2C1 (centres unmarked) [Compound 237],< 5.30
15,CN(C1COC1)C1CC2CN(C(=O)Nc3nc(-c4ccc(F)cc4)ccc3N)CC2C1 (centres unmarked) [Compound 248],5.30 to 6.30
16,Nc1ccc(-c2ccc(F)cc2)nc1NC(=O)N1Cc2cc(F)cnc2C1 [Compound 186],5.30 to 6.30
17,Nc1ccc(-c2ccc(F)cc2)nc1NC(=O)N1CC2CCC(C1)O2 [Compound 406],< 5.30
18,Nc1ccc(-c2ccco2)nc1NC(=O)C1CN(c2ccccn2)C1 [Compound 193],< 5.30
19,Nc1ccc(-c2cccs2)nc1NC(=O)N1Cc2nccnc2C1 [Compound 156],6.30 to 7.00
20,Nc1ccc(-c2ccc(F)cc2)nc1NC(=O)N1Cc2ccncc2C1 [Compound 373],6.30 to 7.00
21,CN(C)CCN1CC2CN(C(=O)Nc3nc(-c4ccc(F)cc4)ccc3N)CC2C1 (centres unmarked) [Compound 166],5.30 to 6.30

row,SMILES,pIC50
1,Nc1ccc(-c2ccc(OC(F)F)cc2)nc1NC(=O)N1Cc2nccnc2C1 [Compound 228],5.30 to 6.30
2,Nc1ccc(-c2ccc(F)cc2)nc1NC(=O)N1CC2CC(NC3COC3)CC2C1 (centres unmarked) [Compound 172],5.30 to 6.30
3,Nc1ccc(-c2ccc(F)cc2)nc1NC(=O)N1Cc2cc(CN3CCC3)cnc2C1 [Compound 272],6.30 to 7.00
4,Nc1ccc(-c2cccnc2)nc1NC(=O)N1CC2(CCNCC2)C1 [Compound 220],< 5.30
5,Nc1cn(-c2ccccc2)nc1NC(=O)N1CCNCC1 [Compound 357],< 5.30
6,Cc1cc2c(cn1)CN(C(=O)Nc1nc(-c3ccc(F)cc3)ccc1N)C2 [Compound 151],6.30 to 7.00
7,CN1CCN(Cc2ccc3c(c2)CN(C(=O)Nc2nn(-c4ccccc4)cc2N)C3)CC1 [Compound 353],5.30 to 6.30
8,Cn1cc(CN2CCCC3(CCN(C(=O)Nc4nn(-c5ccc(F)cc5)cc4N)C3)C2)cn1 (centres unmarked) [Compound 123],< 5.30
9,CN1CCC2(CC1)CCN(C(=O)Nc1nc(-c3cccnc3)ccc1N)C2 [Compound 210],< 5.30
10,Nc1ccc(-c2ccc(F)cc2)nc1NC(=O)N1Cc2cc(N3CCC3)cnc2C1 [Compound 254],5.30 to 6.30
11,CN1CC(n2ncc3c2CN(C(=O)Nc2nc(-c4ccc(F)cc4)ccc2N)C3)C1 [Compound 246],< 5.30
12,Nc1ccc(-c2ccc(F)cc2)nc1NC(=O)N1Cc2ccc(CN3CCCC3)cc2C1 [Compound 405],6.30 to 7.00
13,CN1CCN(c2cc3c(cn2)CN(C(=O)Nc2nc(-c4ccc(F)cc4)ccc2N)C3)CC1 [Compound 160],6.30 to 7.00
14,Nc1ccc(-c2cccnc2)nc1NC(=O)N1Cc2nccnc2C1 [Compound 214],5.30 to 6.30
15,Nc1ccc(-c2ccc(F)cc2)nc1NC(=O)N1Cc2cccnc2C1 [Compound 397],6.30 to 7.00
16,Nc1ccc(-c2ccc(F)cc2)nc1NC(=O)N1Cc2cnc(N3CCC3)cc2C1 [Compound 147],6.30 to 7.00
17,Nc1ccc(-c2cccnc2)nc1NC(=O)C1CCN(Cc2ccccc2F)CC1 [Compound 378],< 5.30
18,Nc1ccc(-c2ccccc2)nc1NC(=O)C1CN(c2ccccn2)C1 [Compound 195],< 5.30
19,Nc1cn(-c2ccccc2)nc1NC(=O)C1CCN(C2COC2)CC1 [Compound 359],< 5.30
20,Nc1ccc(-c2ccc(F)cc2)nc1NC(=O)N1Cc2cccc(N3CCCC3)c2C1 [Compound 249],< 5.30
